This is an account of results in publication PMC6385358, “Discovery of ((1,2,4-oxadiazol-5-yl)pyrrolidin-3-yl)ureidyl derivatives as selective non-steroidal agonists of the G-protein coupled bile acid receptor-1” (Scientific Reports, 2019).

Usually solubility stands for how much of the substance goes into solution per volume. Low readings indicate a poorly soluble substance, high ones a readily soluble substance. Broadly, the logD is lipophilicity at a set pH, counting ionised and neutral species. A lower logD goes with a more hydrophilic compound.

Where “and” joins values, the source holds several entries; their conditions need not be identical. Equal values may be shown once.

The target of one series is T1, LXRβ (Homo sapiens, UniProt P55055).
T1 construct: host or cells: HepG2
T1 sequence (P55055 1-460): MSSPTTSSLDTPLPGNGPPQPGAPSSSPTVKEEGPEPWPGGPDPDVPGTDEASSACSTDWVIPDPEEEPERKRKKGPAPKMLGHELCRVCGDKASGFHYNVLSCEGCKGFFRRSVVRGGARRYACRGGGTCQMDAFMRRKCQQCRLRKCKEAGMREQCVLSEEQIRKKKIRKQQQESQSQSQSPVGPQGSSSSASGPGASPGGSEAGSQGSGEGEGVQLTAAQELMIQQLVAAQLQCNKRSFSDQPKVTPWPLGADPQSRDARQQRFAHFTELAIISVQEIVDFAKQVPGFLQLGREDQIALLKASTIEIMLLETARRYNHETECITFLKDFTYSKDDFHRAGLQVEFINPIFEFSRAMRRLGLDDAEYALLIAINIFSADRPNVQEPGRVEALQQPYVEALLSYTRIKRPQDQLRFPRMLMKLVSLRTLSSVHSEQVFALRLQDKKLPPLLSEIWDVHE
The series can be described thus: Luciferase reporter specificity assay versus LXRβ on HepG2 cells. The following applies: 10 μM. The class given is cell-based. As to the method:
The activity of compounds 1–14 on GPBAR1 was evaluated in a luciferase reporter assay using HEK-293T cells transfected with GPBAR1. The efficacy of tested compounds (Table 1) was measured using taurolithocholic acid (TLCA) as GPBAR1 reference compound[10],[11]. Each compound was tested at the concentration of 10 μM and transactivation activity of TLCA on a cAMP responsive element (CRE) (i.e. TGR5/GPBAR1) was considered equal to 100%. […] Thus, 9 and 10 (Table 1) turned out to be the most promising derivatives considering their low EC50 values and high activity efficacy. To further characterize the pharmacological properties of these compounds, we expanded their in vitro profile to common off-targets for bile acid receptor ligands.
Figure 3 (A) Dose response curves of compounds 9 and 10 (concentrations ranging from 1 to 50 µM) in luciferase reporter assay. (B) Real-time PCR analysis of mRNA expression of Pro-glucagon in GLUTag cells treated with compounds 9 and 10 at 10 μM, and TLCA used as a positive control (10 μM). Values are normalized to GAPDH and are expressed relative to those of not treated cells (NT) which are arbitrarily settled to 1. The relative mRNA expression is expressed as 2^(−ΔΔCt). […]
The specificity of compounds 9 and 10 versus PPARα, PPARγ, LXRα, LXRβ, FXR and PXR was determined in luciferase reporter gene assays as previously reported[29],[31].
(In general: Reporter assays use an easily measured gene product as a stand-in for the process of interest.)

Series [1] is described as follows: Aqueous solubility measurement (PBS pH 7.4, LC-MS). To be noted: aqueous buffer, kinetic from dmso stock; PBS pH 7.4, 24 h room temperature. The class given is physicochemical. As to the method: (§1) Chromatography was performed using a HPLC–MS system Q-ToF Premiere instrument (Waters, Co.) equipped with an ESI source and Waters pump systems. The mixture was separated on a Luna 5 µm C8(2) 100 °A 150 × 2 mm from Phenomenex. The mobile phase consisted of 0.2% formic acid (FA) in water as solvent A and 0.2% FA in acetonitrile as solvent B at a flow rate of 200 μL/min. The gradient was as follows: 0–2 min (75% A and 25% B), 2–20 min (5% A and 95% B), 20–30 min (75% A and 25% B). The detection of analytes was achieved by ESI in the positive mode with the appropriate MRM transition or by UV system at 220 nm.
Ten μL of a 10 mM solution in DMSO of the compound was diluted either in 490 μL of PBS pH 7.4 or in the organic solvent MeOH (in triplicate). The tubes were gently shaken 24 h at room temperature, then centrifuged for 5 min at 4000 rpm. Ten μL of sample was diluted in 490 μL of MeOH. The solubility is determined by the ratio of mass signal area PBS/organic solvent.

Series [2] can be described thus: LogD measurement (octanol/PBS pH 7.4). The class given is physicochemical. The following applies: octanol/PBS (1/1). As to the method: as §1
Ten μL of a 10 mM solution in DMSO of the compound was diluted in 490 μL of a 1/1 octanol/PBS mixture at pH 7.4. The mixture was gently shaken for 2 h at room temperature. Ten microliters of each phase was diluted in 490 μL of MeOH and analyzed by LC-MS/MS. Each compound was tested in triplicate. Log D was determined as the logarithm of the ratio of concentration of product in octanol and PBS, determined by mass signals.

The nature of series [3]: Liver microsomal stability. The class given is in vitro ADME, mouse. To be noted: liver microsomes; for CIint / half-life at 1 μM: 1 μM compound; for CIint: 0.3 mg protein/mL; for half-life at 1 μM: male, CD-1, mouse, pH 7.4, read-out: t½. On the procedure: as §1
Male mouse (CD-1) liver microsomes (Sigma-Aldrich) were used. All incubations were performed in duplicate in a shaking water bath at 37 °C. The incubation mixtures contained 1 μM compound with 1% DMSO used as a vehicle, mouse liver microsomes (0.3 mg of microsomal protein per mL), 5 mM MgCl2, 1 mM NADP, 5 mM glucose 6-phosphate, 0.4 U·mL^-^1 glucose 6-phosphate dehydrogenase, and 50 mM potassium phosphate buffer (pH 7.4) in a final volume of 0.5 mL. Aliquots were removed at 0, 5, 10, 20, 30, and 40 min after microsome addition and the reaction was stopped by adding 200 μL of ice-cold acetonitrile. After 2 h, the samples were centrifuged for 10 min at 10000 rpm, and the supernatants were transferred in matrix tubes for LC-MS/MS analysis. Propranolol, known as a high hepatic clearance drug in rodents, was used as a quality-control compound for the microsomal incubations. The slope of the linear regression of the curve obtained reporting the natural logarithm of compound area versus incubation time (−k) was used in the conversion to in vitro t1/2 values by t1/2 = […]. In vitro intrinsic clearance (Clint expressed as μL/min/mg) was calculated according to the following formula: Clint = volume of reaction (μL)/t1/2 (min)/protein of liver microsomes (mg).

Turning to `O=C(NC1CCCCC1)N[C@@H]1CN[C@H](c2nc(-c3ccccc3)no2)C1` [Compound 10], the LXRβ transactivation result on LXRβ is on record as “unable to induce”. Also, in series [1], the solubility at 24 h was 70 µg/mL and 198 µM. Besides, the pH-dependent lipophilicity (logD) at 2 h in series [2] worked out at 1.25. Also, in series [3], the CIint is recorded as 76 μL/min/mg protein, the “Compound remaining 40 min after treatment” value is 40% and the half-life at 1 μM turned out to be 30 min.

On to `O=C(Nc1ccc(Cl)cc1)N[C@@H]1CN[C@H](c2nc(-c3ccccc3)no2)C1` [Compound 9], for which the LXRβ transactivation entry on LXRβ is “unable to induce”. Moreover, the solubility at 24 h in series [1] is 42 µg/mL and 110 µM. This compound also displayed a logD at 2 h in series [2] of 1.47. In series [3], the CIint is 67 μL/min/mg protein, the “Compound remaining 40 min after treatment” value was 42% and the half-life at 1 μM was 35 min.
